Results from ChEMBL document CHEMBL4507310, “Data for DCP probe A-1211212” (2021).

Key:
[1] = biological target: Cannabinoid receptor 2 (Homo sapiens) (UniProt P34972); experiment: CB2 (h) Eurofins-Cerep binding assay; design: ligand concentration 0.8 nM; conditions: filed as agonist, Compound concentration 10.0 uM
[2] = biological target: T1, 5-hydroxytryptamine receptor 3A (Homo sapiens) (UniProt P46098); experiment: 5-HT3 (h) Eurofins-Cerep binding assay; design: ligand concentration 0.5 nM; conditions: filed as antagonist, Compound concentration 10.0 uM
T1 sequence (whole entry): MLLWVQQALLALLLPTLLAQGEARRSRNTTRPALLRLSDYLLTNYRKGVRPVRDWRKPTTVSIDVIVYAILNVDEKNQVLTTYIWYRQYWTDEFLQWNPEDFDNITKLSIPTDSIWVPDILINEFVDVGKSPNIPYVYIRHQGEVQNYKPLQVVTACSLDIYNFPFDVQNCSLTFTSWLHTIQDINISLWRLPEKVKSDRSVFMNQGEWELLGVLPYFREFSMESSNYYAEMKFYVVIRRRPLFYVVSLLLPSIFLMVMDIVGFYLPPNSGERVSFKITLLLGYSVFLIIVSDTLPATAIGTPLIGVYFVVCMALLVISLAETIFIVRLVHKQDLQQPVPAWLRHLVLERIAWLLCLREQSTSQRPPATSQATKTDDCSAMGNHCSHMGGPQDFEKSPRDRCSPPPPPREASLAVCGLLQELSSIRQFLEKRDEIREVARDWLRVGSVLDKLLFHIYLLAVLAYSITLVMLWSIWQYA

[3] = biological target: 5-hydroxytryptamine receptor 4 (Homo sapiens) (UniProt Q13639); experiment: 5-HT4 e (h) Eurofins-Cerep binding assay; design: ligand concentration 0.3 nM; conditions: filed as antagonist, Compound concentration 10.0 uM
Sequence of 5-hydroxytryptamine receptor 4 (Homo sapiens) (Q13639 whole entry): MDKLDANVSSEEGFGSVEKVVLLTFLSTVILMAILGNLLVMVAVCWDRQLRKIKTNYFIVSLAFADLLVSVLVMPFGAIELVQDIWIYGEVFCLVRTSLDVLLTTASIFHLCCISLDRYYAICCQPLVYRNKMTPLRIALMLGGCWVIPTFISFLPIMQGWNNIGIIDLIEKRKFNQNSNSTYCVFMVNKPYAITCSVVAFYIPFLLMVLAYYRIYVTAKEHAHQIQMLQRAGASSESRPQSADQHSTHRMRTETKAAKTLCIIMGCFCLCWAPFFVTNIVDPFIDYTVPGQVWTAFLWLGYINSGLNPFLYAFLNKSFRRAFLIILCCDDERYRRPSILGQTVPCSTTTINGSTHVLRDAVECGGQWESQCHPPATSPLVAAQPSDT

Na+ channel (site 2) = Na+ channel (site 2) (Rattus norvegicus, UniProt F1LQQ7+O08562+O88420+O88457+P04774+P04775+P08104+P15389+P15390+Q62968); experiment: Na+ channel (site 2) Eurofins-Cerep binding assay; assay type: protein assay; design: incubation time 60 min, incubation temperature 37°C, ligand concentration 10 nM; conditions: rat cerebral cortex, probe [3H]batrachotoxin (10 nM), compound concentration 10 uM, read-out: % Inhibition of Control Specific Binding (Mean n=2)
[4] = biological target: Sodium-dependent dopamine transporter (Homo sapiens, UniProt Q01959); experiment: dopamine transporter (h) Eurofins-Cerep binding assay; design: ligand concentration 4 nM; conditions: filed as antagonist, Compound concentration 10.0 uM
[5] = biological target: Tyrosine-protein kinase ABL2 (Homo sapiens) (UniProt P42684); conditions: Compound concentration 1000.0 nM
[6] = biological target: Activin receptor type-2B (Homo sapiens) (UniProt Q13705); conditions: Compound concentration 1000.0 nM
[7] = test system: ALK tyrosine kinase receptor (Homo sapiens), Q9UM73 [L1196M]; conditions: Compound concentration 1000.0 nM
Sequence of ALK tyrosine kinase receptor (Homo sapiens), Q9UM73 [L1196M] (Q9UM73 whole entry L1196M, looked up): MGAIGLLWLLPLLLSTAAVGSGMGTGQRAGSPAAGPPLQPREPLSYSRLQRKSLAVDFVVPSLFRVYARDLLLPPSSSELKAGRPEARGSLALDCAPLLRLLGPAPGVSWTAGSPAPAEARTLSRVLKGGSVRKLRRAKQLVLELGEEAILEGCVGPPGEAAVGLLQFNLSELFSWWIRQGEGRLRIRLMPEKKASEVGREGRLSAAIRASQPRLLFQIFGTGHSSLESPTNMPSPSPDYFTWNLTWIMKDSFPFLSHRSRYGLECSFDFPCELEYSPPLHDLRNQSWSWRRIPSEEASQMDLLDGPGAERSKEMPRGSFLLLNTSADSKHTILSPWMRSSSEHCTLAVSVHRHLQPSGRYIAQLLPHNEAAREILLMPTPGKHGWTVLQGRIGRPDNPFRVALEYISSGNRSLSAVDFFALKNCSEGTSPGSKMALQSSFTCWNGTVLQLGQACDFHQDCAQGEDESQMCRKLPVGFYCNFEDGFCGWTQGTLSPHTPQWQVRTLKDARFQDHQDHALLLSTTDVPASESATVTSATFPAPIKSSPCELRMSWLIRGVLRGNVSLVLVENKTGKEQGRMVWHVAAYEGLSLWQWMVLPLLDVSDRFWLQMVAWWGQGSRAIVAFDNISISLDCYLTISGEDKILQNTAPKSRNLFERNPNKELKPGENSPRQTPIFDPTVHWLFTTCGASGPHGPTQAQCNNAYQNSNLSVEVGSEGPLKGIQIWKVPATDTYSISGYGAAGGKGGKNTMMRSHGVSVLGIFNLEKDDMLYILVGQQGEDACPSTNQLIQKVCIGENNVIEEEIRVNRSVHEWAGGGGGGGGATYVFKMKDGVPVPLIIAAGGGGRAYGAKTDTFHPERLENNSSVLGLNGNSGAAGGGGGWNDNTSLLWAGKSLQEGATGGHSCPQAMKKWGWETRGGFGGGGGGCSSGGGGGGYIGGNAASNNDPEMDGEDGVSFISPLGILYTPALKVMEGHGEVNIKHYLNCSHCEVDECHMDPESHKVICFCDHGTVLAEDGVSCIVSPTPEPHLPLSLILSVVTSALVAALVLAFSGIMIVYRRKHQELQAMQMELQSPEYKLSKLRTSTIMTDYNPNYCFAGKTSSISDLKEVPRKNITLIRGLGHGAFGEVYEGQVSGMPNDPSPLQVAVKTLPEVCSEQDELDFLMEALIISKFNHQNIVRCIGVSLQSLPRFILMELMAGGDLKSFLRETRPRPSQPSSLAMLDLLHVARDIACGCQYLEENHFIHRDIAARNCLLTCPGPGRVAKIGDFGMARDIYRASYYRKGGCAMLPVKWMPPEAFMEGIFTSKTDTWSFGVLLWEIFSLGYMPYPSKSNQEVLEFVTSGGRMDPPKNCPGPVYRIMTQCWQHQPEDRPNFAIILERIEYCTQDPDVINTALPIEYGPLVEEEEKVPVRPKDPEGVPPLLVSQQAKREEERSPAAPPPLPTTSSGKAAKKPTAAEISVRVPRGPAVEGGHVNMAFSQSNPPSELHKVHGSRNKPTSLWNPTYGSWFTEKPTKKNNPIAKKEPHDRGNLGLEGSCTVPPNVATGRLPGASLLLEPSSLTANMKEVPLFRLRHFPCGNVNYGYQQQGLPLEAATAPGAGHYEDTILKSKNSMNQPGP

[8] = biological target: Mitogen-activated protein kinase kinase kinase 5 (Homo sapiens) (UniProt Q99683); conditions: Compound concentration 1000.0 nM
[9] = biological target: Cyclin-dependent kinase 4 (Homo sapiens) (UniProt P11802); conditions: Compound concentration 1000.0 nM
Sequence of Cyclin-dependent kinase 4 (Homo sapiens) (P11802 whole entry, canonical isoform): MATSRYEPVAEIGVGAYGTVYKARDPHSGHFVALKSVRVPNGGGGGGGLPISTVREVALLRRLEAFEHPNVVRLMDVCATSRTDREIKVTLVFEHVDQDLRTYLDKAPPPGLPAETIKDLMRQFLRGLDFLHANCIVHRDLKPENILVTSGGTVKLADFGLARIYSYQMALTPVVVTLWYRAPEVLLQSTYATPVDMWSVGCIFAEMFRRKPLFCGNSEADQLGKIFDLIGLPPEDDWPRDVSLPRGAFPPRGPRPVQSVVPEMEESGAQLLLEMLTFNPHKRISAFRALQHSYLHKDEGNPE

[10] = biological target: Casein kinase I isoform alpha-like (Homo sapiens) (UniProt Q8N752); conditions: Compound concentration 1000.0 nM
[11] = biological target: Death-associated protein kinase 2 (Homo sapiens) (UniProt Q9UIK4); conditions: Compound concentration 1000.0 nM
[12] = biological target: Serine/threonine-protein kinase 17B (Homo sapiens) (UniProt O94768); conditions: Compound concentration 1000.0 nM
Sequence of Serine/threonine-protein kinase 17B (Homo sapiens) (O94768 whole entry): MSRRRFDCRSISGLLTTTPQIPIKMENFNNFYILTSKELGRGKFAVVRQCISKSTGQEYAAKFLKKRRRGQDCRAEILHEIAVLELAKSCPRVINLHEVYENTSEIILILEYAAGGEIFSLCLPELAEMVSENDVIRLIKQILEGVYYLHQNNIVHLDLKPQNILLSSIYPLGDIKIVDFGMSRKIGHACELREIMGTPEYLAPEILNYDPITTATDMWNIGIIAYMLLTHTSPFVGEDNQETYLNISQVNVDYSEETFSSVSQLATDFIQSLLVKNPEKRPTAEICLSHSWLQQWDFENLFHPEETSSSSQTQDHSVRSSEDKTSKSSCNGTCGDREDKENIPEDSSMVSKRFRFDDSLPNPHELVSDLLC

[13] = biological target: G protein-coupled receptor kinase 3 (Homo sapiens) (UniProt P35626); conditions: Compound concentration 1000.0 nM
[14] = biological target: Insulin receptor-related protein (Homo sapiens) (UniProt P14616); conditions: Compound concentration 1000.0 nM
[15] = biological target: Interleukin-1 receptor-associated kinase 1 (Homo sapiens) (UniProt P51617); conditions: Compound concentration 1000.0 nM
[16] = test system: Mast/stem cell growth factor receptor Kit (Homo sapiens), P10721 [L576P]; conditions: Compound concentration 1000.0 nM
[17] = biological target: Dual specificity mitogen-activated protein kinase kinase 4 (Homo sapiens) (UniProt P45985); conditions: Compound concentration 1000.0 nM
[18] = biological target: Myosin-IIIb (Homo sapiens) (UniProt Q8WXR4); conditions: Compound concentration 1000.0 nM
Sequence of Myosin-IIIb (Homo sapiens) (Q8WXR4 whole entry): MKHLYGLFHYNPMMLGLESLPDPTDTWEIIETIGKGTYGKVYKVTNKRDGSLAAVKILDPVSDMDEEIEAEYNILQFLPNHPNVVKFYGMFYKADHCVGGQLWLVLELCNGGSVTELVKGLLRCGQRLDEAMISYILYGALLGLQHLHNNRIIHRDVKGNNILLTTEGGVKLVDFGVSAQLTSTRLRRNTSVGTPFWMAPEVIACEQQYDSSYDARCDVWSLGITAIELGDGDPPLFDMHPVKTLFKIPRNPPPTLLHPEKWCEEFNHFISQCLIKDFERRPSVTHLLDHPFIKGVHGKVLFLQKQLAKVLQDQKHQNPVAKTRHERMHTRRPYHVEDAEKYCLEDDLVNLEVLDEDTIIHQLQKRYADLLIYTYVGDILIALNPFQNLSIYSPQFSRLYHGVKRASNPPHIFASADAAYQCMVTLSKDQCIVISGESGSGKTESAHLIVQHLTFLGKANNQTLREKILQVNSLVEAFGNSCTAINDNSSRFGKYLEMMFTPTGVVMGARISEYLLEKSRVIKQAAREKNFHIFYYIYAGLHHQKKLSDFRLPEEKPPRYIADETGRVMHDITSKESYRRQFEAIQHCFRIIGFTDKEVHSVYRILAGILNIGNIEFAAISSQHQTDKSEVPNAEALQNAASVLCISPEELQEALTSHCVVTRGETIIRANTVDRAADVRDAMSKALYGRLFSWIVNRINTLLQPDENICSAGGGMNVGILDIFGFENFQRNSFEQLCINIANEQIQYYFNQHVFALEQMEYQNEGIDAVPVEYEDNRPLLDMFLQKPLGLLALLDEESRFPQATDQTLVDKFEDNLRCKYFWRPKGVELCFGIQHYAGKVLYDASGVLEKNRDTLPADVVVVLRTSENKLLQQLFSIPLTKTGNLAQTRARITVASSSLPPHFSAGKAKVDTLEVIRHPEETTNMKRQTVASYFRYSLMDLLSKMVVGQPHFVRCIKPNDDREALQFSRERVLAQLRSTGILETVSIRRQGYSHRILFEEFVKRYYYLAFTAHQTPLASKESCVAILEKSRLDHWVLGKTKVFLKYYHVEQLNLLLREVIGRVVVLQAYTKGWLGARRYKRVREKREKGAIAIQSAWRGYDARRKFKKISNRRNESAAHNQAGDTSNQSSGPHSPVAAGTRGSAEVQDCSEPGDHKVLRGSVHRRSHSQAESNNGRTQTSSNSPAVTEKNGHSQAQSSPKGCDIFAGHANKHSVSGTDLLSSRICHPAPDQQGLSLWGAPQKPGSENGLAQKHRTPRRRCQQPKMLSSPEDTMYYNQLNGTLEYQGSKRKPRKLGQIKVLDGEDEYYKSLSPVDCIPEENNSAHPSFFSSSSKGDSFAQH

[19] = biological target: Serine/threonine-protein kinase Nek1 (Homo sapiens) (UniProt Q96PY6); conditions: Compound concentration 1000.0 nM
[20] = biological target: Cyclin-dependent kinase 16 (Homo sapiens) (UniProt Q00536); conditions: Compound concentration 1000.0 nM
[21] = biological target: 3-phosphoinositide-dependent protein kinase 1 (Homo sapiens) (UniProt O15530); conditions: Compound concentration 1000.0 nM
[22] = biological target: Phosphorylase b kinase regulatory subunit alpha, liver isoform (Homo sapiens) (UniProt P46019); conditions: Compound concentration 1000.0 nM
[23] = biological target: Phosphatidylinositol 4,5-bisphosphate 3-kinase catalytic subunit alpha isoform (Homo sapiens) (UniProt P42336); conditions: Compound concentration 1000.0 nM
[24] = test system: Phosphatidylinositol 4,5-bisphosphate 3-kinase catalytic subunit alpha isoform (Homo sapiens), P42336 [E545K]; conditions: Compound concentration 1000.0 nM
[25] = biological target: cAMP-dependent protein kinase catalytic subunit beta (Homo sapiens) (UniProt P22694); conditions: Compound concentration 1000.0 nM
[26] = biological target: RAF proto-oncogene serine/threonine-protein kinase (Homo sapiens) (UniProt P04049); conditions: Compound concentration 1000.0 nM
[27] = biological target: Serine/threonine-protein kinase TAO3 (Homo sapiens) (UniProt Q9H2K8); conditions: Compound concentration 1000.0 nM
[28] = biological target: 5-hydroxytryptamine receptor 1E (Homo sapiens) (UniProt P28566); conditions: Compound concentration 10.0 uM
Sequence of 5-hydroxytryptamine receptor 1E (Homo sapiens) (P28566 whole entry): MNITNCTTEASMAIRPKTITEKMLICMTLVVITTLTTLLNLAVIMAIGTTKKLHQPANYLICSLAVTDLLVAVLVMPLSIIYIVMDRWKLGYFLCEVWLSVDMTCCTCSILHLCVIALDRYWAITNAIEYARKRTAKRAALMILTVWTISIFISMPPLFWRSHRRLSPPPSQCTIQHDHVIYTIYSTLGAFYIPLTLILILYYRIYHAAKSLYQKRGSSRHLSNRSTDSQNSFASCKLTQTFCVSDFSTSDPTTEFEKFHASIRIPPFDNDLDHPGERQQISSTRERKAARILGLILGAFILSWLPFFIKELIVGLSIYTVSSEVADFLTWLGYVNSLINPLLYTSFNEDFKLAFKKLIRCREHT

[29] = biological target: D(1B) dopamine receptor (Homo sapiens) (UniProt P21918); conditions: Compound concentration 10.0 uM
[30] = biological target: T2, Muscarinic acetylcholine receptor M1 (Homo sapiens) (UniProt P11229); conditions: Compound concentration 10.0 uM
T2 sequence (whole entry): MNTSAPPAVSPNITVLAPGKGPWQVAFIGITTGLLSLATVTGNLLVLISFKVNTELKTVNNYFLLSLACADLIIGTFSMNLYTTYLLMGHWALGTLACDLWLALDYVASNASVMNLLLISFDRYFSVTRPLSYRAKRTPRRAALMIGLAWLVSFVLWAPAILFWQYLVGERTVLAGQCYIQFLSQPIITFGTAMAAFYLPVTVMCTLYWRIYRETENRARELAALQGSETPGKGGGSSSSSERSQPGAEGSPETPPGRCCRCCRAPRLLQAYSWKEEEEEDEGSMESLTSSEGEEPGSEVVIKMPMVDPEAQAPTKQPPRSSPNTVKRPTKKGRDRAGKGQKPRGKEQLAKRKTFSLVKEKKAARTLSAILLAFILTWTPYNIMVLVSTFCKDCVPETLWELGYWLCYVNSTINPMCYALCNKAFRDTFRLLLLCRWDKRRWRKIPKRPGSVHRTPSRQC

Sequence of Cannabinoid receptor 2 (Homo sapiens) (P34972 whole entry): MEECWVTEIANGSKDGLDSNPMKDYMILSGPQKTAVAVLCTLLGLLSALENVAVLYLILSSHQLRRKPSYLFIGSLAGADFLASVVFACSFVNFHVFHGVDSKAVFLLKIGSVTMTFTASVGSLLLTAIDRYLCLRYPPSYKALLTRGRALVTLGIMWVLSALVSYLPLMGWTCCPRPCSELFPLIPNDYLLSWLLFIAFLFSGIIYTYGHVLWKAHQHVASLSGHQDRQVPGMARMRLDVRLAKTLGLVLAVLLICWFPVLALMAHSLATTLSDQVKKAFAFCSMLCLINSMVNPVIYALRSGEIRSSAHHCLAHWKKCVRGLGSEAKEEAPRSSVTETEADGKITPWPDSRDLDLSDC

SMILES | % Inhibition of Control Specific Binding (Mean n=2) [1] | % Inhibition of Control Specific Binding (Mean n=2) [2] | % Inhibition of Control Specific Binding (Mean n=2) [3] | inhibition at 60 min, 10 µM (Na+ channel (site 2)) | % Inhibition of Control Specific Binding (Mean n=2) [4] | residual activity [5] | residual activity [6] | residual activity [7] | residual activity [8] | residual activity [9] | residual activity [10] | residual activity [11] | residual activity [12] | residual activity [13] | residual activity [14] | residual activity [15] | residual activity [16] | residual activity [17] | residual activity [18] | residual activity [19] | also measured
O=C(NS(=O)(=O)c1ccc(NCC2CCOCC2)c([N+](=O)[O-])c1)c1ccc(N2CCN(Cc3ccc(C(F)(F)F)cc3-c3ccc(Cl)cc3)CC2)cc1Oc1cnc2[nH]ccc2c1 [A-1210227] | -13% | 0.2% | -2% | -8.2% | 2.2% | 100% | 94% | 100% | 82% | 100% | 100% | 85% | 100% | 78% | 98% | 96% | 100% | 100% | 100% | 99% | residual activity [20]: 67%; residual activity [21]: 70%; residual activity [22]: 83%; residual activity [23]: 69%; residual activity [24]: 100%; residual activity [25]: 91%; residual activity [26]: 100%; residual activity [27]: 86%; inhibition [28]: 10.4%; inhibition [29]: 9.7%; inhibition [30]: -6.07%
CO[C@H]1CC[C@H](CNc2ccc(S(=O)(=O)NC(=O)c3ccc(N4CCN(CC5=C(c6ccc(Cl)cc6)CC(C)(C)CC5)CC4)cc3Oc3cnc4[nH]ccc4c3)cc2[N+](=O)[O-])CC1 [A-1211212] | 21.4% | -6.1% | -1% | -2.3% | 29.7% | 81% | 95% | 100% | 78% | 100% | 85% | 75% | 91% | 79% | 100% | 96% | 100% | 98% | 69% | 77% | residual activity [20]: 61%; residual activity [21]: 72%; residual activity [22]: 74%; residual activity [23]: 77%; residual activity [24]: 96%; residual activity [25]: 88%; residual activity [26]: 94%; residual activity [27]: 87%; inhibition [28]: -1.62%; inhibition [29]: 34.1%; inhibition [30]: 4.59%
